# Reference: patent US20140045806A1 (priority 2012, published 2014)
# Read-outs that look alike come from different tables or passages of the source. Marks after values point to notes of the source that are not given here.
# How the values were obtained:
# postmenopausal women = assay: ERC-210 phase III trial, MENQOL questionnaire (sexual domain and summary score); assay type: in vivo; conditions: for MENQOL sexual domain, average percentage of change from baseline, percentages of the three DHEA doses combined: 12 weeks; for MENQOL Avoiding intimacy, average % change from baseline to Week 12 in severity score over placebo / MENQOL Sexual desire, average % change from baseline to Week 12 in severity score over placebo / MENQOL Vaginal dryness at sexual activity, average % change from baseline to Week 12 in severity score over placebo: average of the 3 DHEA doses
# Text: The example below is intended only to illustrate a particular embodiment of the present invention and is not meant to limit the scope of the invention in any manner. This study (ERC-210) is a phase III, prospective, multicentre, randomized, placebo-controlled, and double-blind trial. […] The DHEA ovules or suppositories (Vaginorm™) containing prasterone in a lipophilic base were manufactured by Recipharm, Karlskoga, Sweden. The study was divided into two phases, namely screening followed by a treatment period of 12 weeks. The protocol was approved by the Institutional Review Board of the Centre Hospitalier de I'Université Laval (Quebec City, Canada), McGill University (Montreal, Canada), Ethica (Montreal, Canada), Eastern Virginia Medical School (Norfolk, Va., USA) and the Western Institutional Review Board (Los Angeles, USA).
# The inclusion and exclusion criteria were as described in (Labrie, Archer et al. 2009b). A written informed consent was obtained from all subjects prior to the performance of any study-related procedure. […] A partial gynecological examination was performed to evaluate the aspect of the mucosa and tolerance to the medication on day 1 and at all visits. The standard laboratory tests, namely hematology (including complete blood count and coagulation), blood chemistry and urinalysis were performed at screening, day 1 and at all visits. Summary tabulations were prepared displaying the number of observations, mean or geometric mean as appropriate, SD; SEM, 95% two-sided CI; median, minimum, and maximum for continuous variables; and the number and percentage per category for categorical data. Statistical analyses were performed at the two-sided significance level of 0.05 unless otherwise stated. […] The endpoints for analysis consisted of the following: desire/interest, arousal and orgasm were self-rated by the women at screening, at day 1, and at week 4, 8 and 12 using the ASF and MENQOL questionnaires. Baseline was defined as the value on day 1, obtained before first use of the study treatment, and change from baseline to week 12 was calculated for each participant for each domain endpoint. The analysis comparing each dose of DHEA to placebo was performed by analysis of covariance, with the baseline value used as the covariate. Missing values were replaced by the last observation made.
# The three questions covered by the sexual domain of the MENQOL questionnaire are change in sexual desire, intimacy avoidance and vaginal dryness during sexual activity. In our previous publication (Labrie, Archer et al. 2009a), only women having a score value at baseline and week 12 were used in the calculations while the present evaluation carries forward the last value obtained after baseline when data at week 12 are missing. […] Since the number of women is as low as 12 in some groups for some parameters after the distribution is made between women with and without MS, the calculations have also been performed with the combination of the three prasterone doses, although the number of women remains low in the corresponding placebo group.
# vaginal nerve fibers = conditions: rat, lamina propria and muscularis, cited from earlier work
# [1] = 0.25% DHEA intravaginal daily 12 weeks, MS pain at sexual activity at baseline
# [2] = 0.5% DHEA intravaginal daily 12 weeks, MS pain at sexual activity at baseline
# [3] = 0.5% DHEA intravaginal daily 12 weeks, all subjects (ITT)
# [4] = 1.0% DHEA intravaginal daily 12 weeks, no MS pain at sexual activity at baseline
# [5] = Pool 3 Doses DHEA intravaginal daily 12 weeks, MS pain at sexual activity at baseline
# [6] = Pool 3 Doses DHEA intravaginal daily 12 weeks, MS pain at sexual activity at baseline, listed as prasterone
# [7] = Pool 3 Doses DHEA intravaginal daily 12 weeks, all subjects (ITT)
# [8] = Pool 3 Doses DHEA intravaginal daily 12 weeks, all subjects (ITT), listed as prasterone
# [9] = Pool 3 Doses DHEA intravaginal daily 12 weeks, no MS pain at sexual activity at baseline
# [10] = Pool 3 Doses DHEA intravaginal daily 12 weeks, no MS pain at sexual activity at baseline, listed as prasterone
compound,measurement,setting,value
"C[C@]12CC[C@H](O)CC1=CC[C@@H]1[C@@H]2CC[C@]2(C)C(=O)CC[C@@H]12 [DHEA, (3β)-3-Hydroxyandrost-5-en-17-one]","MENQOL Avoiding intimacy (Q 29) severity score, average % change from baseline to Week 12 (decreased from baseline)",postmenopausal women; [1],41%
same,"MENQOL SUMMARY SCORE of the four domains, average % change from baseline to Week 12 (decreased from baseline)",postmenopausal women; [1],24%**
same,"MENQOL Sexual desire (Q 27) severity score, average % change from baseline to Week 12 (decreased from baseline)",postmenopausal women; [1],48%
same,"MENQOL Vaginal dryness during intercourse (Q28) severity score, average % change from baseline to Week 12 (decreased from baseline)",postmenopausal women; [1],45%
same,"MENQOL SUMMARY SCORE of the four domains, average % change from baseline to Week 12 (decreased from baseline)","postmenopausal women; 0.25% DHEA intravaginal daily 12 weeks, all subjects (ITT)",24%**
same,"MENQOL SUMMARY SCORE of the four domains, average % change from baseline to Week 12 (decreased from baseline)","postmenopausal women; 0.25% DHEA intravaginal daily 12 weeks, no MS pain at sexual activity at baseline",25%*
same,"MENQOL Avoiding intimacy (Q 29) severity score, average % change from baseline to Week 12 (decreased from baseline)",postmenopausal women; [2],43%
same,"MENQOL SUMMARY SCORE of the four domains, average % change from baseline to Week 12 (decreased from baseline)",postmenopausal women; [2],19%
same,"MENQOL Sexual desire (Q 27) severity score, average % change from baseline to Week 12 (decreased from baseline)",postmenopausal women; [2],36%
same,"MENQOL SUMMARY SCORE of the four domains, average % change from baseline to Week 12 (decreased from baseline)",postmenopausal women; [3],18%
same,"MENQOL Sexual desire (Q 27) severity score, average % change from baseline to Week 12 (decreased from baseline)",postmenopausal women; [3],31%
same,"MENQOL SUMMARY SCORE of the four domains, average % change from baseline to Week 12 (decreased from baseline)","postmenopausal women; 0.5% DHEA intravaginal daily 12 weeks, no MS pain at sexual activity at baseline",12%
same,"MENQOL SUMMARY SCORE of the four domains, average % change from baseline to Week 12 (decreased from baseline)","postmenopausal women; 1.0% DHEA intravaginal daily 12 weeks, MS pain at sexual activity at baseline",22%*
same,"MENQOL SUMMARY SCORE of the four domains, average % change from baseline to Week 12 (decreased from baseline)","postmenopausal women; 1.0% DHEA intravaginal daily 12 weeks, all subjects (ITT)",20%*
same,"MENQOL Avoiding intimacy (Q 29) severity score, average % change from baseline to Week 12 (decreased from baseline)",postmenopausal women; [4],27%
same,"MENQOL SUMMARY SCORE of the four domains, average % change from baseline to Week 12 (decreased from baseline)",postmenopausal women; [4],14%
same,"MENQOL Sexual desire (Q 27) severity score, average % change from baseline to Week 12 (decreased from baseline)",postmenopausal women; [4],35%
same,"Changes over placebo, sum of the three questions of the MENQOL sexual function domain",postmenopausal women; MS pain group,62.8%
same,"Specific (above placebo) effect in MENQOL, global increase over placebo",postmenopausal women; MS pain group,0.78 fold
same,"MENQOL sexual domain, average percentage of change from baseline, percentages of the three DHEA doses combined",postmenopausal women; MS pain group,49.0%
same,"MENQOL Avoiding intimacy (Q 29) severity score, average % change from baseline to Week 12 (decreased from baseline)",postmenopausal women; [5],46.4%*
same,"MENQOL SUMMARY SCORE of the four domains, average % change from baseline to Week 12 (decreased from baseline)",postmenopausal women; [5],21.4%*
same,"MENQOL Sexual desire (Q 27) severity score, average % change from baseline to Week 12 (decreased from baseline)",postmenopausal women; [5],45.0%
same,"MENQOL Sexual domain severity score, average % change from baseline to Week 12 (decreased from baseline)",postmenopausal women; [5],48.4%**
same,"MENQOL Vaginal dryness during intercourse (Q28) severity score, average % change from baseline to Week 12 (decreased from baseline)",postmenopausal women; [5],52.4%**
same,"MENQOL Avoiding intimacy (Q 29) severity score, average % change from baseline to Week 12 (decreased from baseline)",postmenopausal women; [6],46.4%
same,"MENQOL SUMMARY SCORE of the four domains, average % change from baseline to Week 12 (decreased from baseline)",postmenopausal women; [6],21.4%
same,"MENQOL Sexual desire (Q 27) severity score, average % change from baseline to Week 12 (decreased from baseline)",postmenopausal women; [6],45%
same,"MENQOL Sexual domain severity score, average % change from baseline to Week 12 (decreased from baseline)",postmenopausal women; [6],48.4%
same,"MENQOL Vaginal dryness during intercourse (Q28) severity score, average % change from baseline to Week 12 (decreased from baseline)",postmenopausal women; [6],52.4%
same,"MENQOL Avoiding intimacy (Q 29) severity score, average % change from baseline to Week 12 (decreased from baseline)",postmenopausal women; [7],44.8%**
same,"MENQOL SUMMARY SCORE of the four domains, average % change from baseline to Week 12 (decreased from baseline)",postmenopausal women; [7],20.8%**
same,"MENQOL Sexual desire (Q 27) severity score, average % change from baseline to Week 12 (decreased from baseline)",postmenopausal women; [7],44.0%**
same,"MENQOL Sexual domain severity score, average % change from baseline to Week 12 (decreased from baseline)",postmenopausal women; [7],46.7%**
same,"MENQOL Vaginal dryness during intercourse (Q28) severity score, average % change from baseline to Week 12 (decreased from baseline)",postmenopausal women; [7],49.9%**
same,"MENQOL Avoiding intimacy (Q 29) severity score, average % change from baseline to Week 12 (decreased from baseline)",postmenopausal women; [8],44.8%
same,"MENQOL SUMMARY SCORE of the four domains, average % change from baseline to Week 12 (decreased from baseline)",postmenopausal women; [8],20.8%
same,"MENQOL Sexual desire (Q 27) severity score, average % change from baseline to Week 12 (decreased from baseline)",postmenopausal women; [8],44%
same,"MENQOL Sexual domain severity score, average % change from baseline to Week 12 (decreased from baseline)",postmenopausal women; [8],46.7%
same,"MENQOL Vaginal dryness during intercourse (Q28) severity score, average % change from baseline to Week 12 (decreased from baseline)",postmenopausal women; [8],49.9%
same,"MENQOL Avoiding intimacy (Q 29) severity score, average % change from baseline to Week 12 (decreased from baseline)",postmenopausal women; [9],36.6%*
same,"MENQOL SUMMARY SCORE of the four domains, average % change from baseline to Week 12 (decreased from baseline)",postmenopausal women; [9],18.0%*
same,"MENQOL Sexual desire (Q 27) severity score, average % change from baseline to Week 12 (decreased from baseline)",postmenopausal women; [9],40.2%**
same,"MENQOL Sexual domain severity score, average % change from baseline to Week 12 (decreased from baseline)",postmenopausal women; [9],39.2%**
same,"MENQOL Vaginal dryness during intercourse (Q28) severity score, average % change from baseline to Week 12 (decreased from baseline)",postmenopausal women; [9],38.2%**
same,"MENQOL Avoiding intimacy (Q 29) severity score, average % change from baseline to Week 12 (decreased from baseline)",postmenopausal women; [10],36.6%
same,"MENQOL SUMMARY SCORE of the four domains, average % change from baseline to Week 12 (decreased from baseline)",postmenopausal women; [10],18%
same,"MENQOL Sexual desire (Q 27) severity score, average % change from baseline to Week 12 (decreased from baseline)",postmenopausal women; [10],40.2%
same,"MENQOL Sexual domain severity score, average % change from baseline to Week 12 (decreased from baseline)",postmenopausal women; [10],39.2%
same,"MENQOL Vaginal dryness during intercourse (Q28) severity score, average % change from baseline to Week 12 (decreased from baseline)",postmenopausal women; [10],38.2%
same,"MENQOL Avoiding intimacy, average % change from baseline to Week 12 in severity score over placebo",postmenopausal women; MS PAIN at baseline,21.4%*
same,"MENQOL Sexual desire, average % change from baseline to Week 12 in severity score over placebo",postmenopausal women; MS PAIN at baseline,18.0%
same,"MENQOL Vaginal dryness at sexual activity, average % change from baseline to Week 12 in severity score over placebo",postmenopausal women; MS PAIN at baseline,23.4%**
same,"MENQOL Avoiding intimacy, average % change from baseline to Week 12 in severity score over placebo",postmenopausal women; NO MS PAIN at baseline,27.4%*
same,"MENQOL Sexual desire, average % change from baseline to Week 12 in severity score over placebo",postmenopausal women; NO MS PAIN at baseline,34.1%**
same,"MENQOL Vaginal dryness at sexual activity, average % change from baseline to Week 12 in severity score over placebo",postmenopausal women; NO MS PAIN at baseline,38.2%**
same,"MENQOL Avoiding intimacy, average % change from baseline to Week 12 in severity score over placebo",postmenopausal women; TOTAL (all women),22.8%**
same,"MENQOL Sexual desire, average % change from baseline to Week 12 in severity score over placebo",postmenopausal women; TOTAL (all women),22.0%**
same,"MENQOL Vaginal dryness at sexual activity, average % change from baseline to Week 12 in severity score over placebo",postmenopausal women; TOTAL (all women),26.9%**
same,"Changes over placebo, sum of the three questions of the MENQOL sexual function domain",postmenopausal women; no MS pain group,99.7%
same,"Specific (above placebo) effect in MENQOL, global increase over placebo",postmenopausal women; non MS pain group,5.5 fold
same,"MENQOL sexual domain, average percentage of change from baseline, percentages of the three DHEA doses combined",postmenopausal women; non MS pain group,33.3%
same,"Higher specificity of correction of sexual dysfunction (over placebo), MENQOL",postmenopausal women; women with no MS pain versus MS pain at baseline,6.8 fold
same,Density of vaginal nerve fibers,vaginal nerve fibers,increases the density of nerve fibers
same,Density of vaginal nerve fibers,vaginal nerve fibers; listed as prasterone,stimulatory effect
